# The source made the active and inactive calls.
# Assays:
# Leucine aminopeptidase = biological target: T1, Leucine aminopeptidase (Plasmodium falciparum 3D7, UniProt Q8IL11); assay: P. falciparum M17LAP inhibitors, primary screen, biochemical, fluorogenic H-Leu-NHMec substrate, 1536-well (AID 1619); type: functional
# T1 sequence (Q8IL11 whole entry): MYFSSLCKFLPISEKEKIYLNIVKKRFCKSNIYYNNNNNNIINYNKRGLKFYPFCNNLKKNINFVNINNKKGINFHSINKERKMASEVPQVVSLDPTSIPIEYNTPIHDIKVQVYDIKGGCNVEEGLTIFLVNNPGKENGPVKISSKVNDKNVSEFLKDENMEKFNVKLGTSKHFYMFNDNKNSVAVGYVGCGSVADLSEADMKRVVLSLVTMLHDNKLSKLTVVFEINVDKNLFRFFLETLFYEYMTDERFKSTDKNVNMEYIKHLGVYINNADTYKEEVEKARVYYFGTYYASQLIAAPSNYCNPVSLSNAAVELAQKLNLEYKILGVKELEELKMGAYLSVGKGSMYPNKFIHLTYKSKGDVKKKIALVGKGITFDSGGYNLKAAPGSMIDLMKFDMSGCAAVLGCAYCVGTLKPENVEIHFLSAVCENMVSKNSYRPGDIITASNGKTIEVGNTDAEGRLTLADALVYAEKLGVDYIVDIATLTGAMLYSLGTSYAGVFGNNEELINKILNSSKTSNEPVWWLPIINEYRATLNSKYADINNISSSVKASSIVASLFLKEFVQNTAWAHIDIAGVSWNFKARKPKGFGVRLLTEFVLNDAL
# Genome polyprotein = Genome polyprotein (dengue virus type 2, UniProt P29990); assay: flavivirus cap methylation enzyme inhibition – biochemical, confirmation dose response, primary screen (AID 588689); type: functional
# Genome polyprotein, sequence (P29990 2492-3391 limits assumed): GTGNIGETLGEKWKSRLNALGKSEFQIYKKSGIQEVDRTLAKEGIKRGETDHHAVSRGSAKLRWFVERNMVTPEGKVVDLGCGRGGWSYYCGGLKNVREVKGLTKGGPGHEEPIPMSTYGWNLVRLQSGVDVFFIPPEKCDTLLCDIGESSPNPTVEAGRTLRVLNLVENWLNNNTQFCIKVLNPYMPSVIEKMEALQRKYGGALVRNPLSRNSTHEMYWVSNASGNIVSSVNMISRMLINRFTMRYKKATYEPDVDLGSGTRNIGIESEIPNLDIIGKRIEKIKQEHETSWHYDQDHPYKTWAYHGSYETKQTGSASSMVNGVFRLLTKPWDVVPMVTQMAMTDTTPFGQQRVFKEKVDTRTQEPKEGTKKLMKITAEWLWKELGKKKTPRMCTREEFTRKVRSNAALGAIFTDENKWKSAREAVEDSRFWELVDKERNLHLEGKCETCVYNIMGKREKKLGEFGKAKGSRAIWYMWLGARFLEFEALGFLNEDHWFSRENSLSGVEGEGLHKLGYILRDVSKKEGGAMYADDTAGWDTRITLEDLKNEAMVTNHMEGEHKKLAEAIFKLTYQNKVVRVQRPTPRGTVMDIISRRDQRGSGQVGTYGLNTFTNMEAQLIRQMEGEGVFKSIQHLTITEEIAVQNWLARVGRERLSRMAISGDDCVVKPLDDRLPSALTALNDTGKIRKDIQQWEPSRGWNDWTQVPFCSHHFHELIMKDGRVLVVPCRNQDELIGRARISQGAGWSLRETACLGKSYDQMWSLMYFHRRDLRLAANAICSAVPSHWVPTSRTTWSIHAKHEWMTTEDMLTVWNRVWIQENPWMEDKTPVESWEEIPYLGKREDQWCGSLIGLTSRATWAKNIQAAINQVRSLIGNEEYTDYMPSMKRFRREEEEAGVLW
# [1] = biological target: T2, Corticotropin-releasing factor receptor 2/Corticotropin-releasing factor-binding protein (Homo sapiens, UniProt P24387+Q13324); assay: activators of CRF receptor 2 with binding protein – uHTS hits, confirmation (AID 602473); type: functional; details: read-out: EC50_Mean
# T2 sequence (Q13324 whole entry): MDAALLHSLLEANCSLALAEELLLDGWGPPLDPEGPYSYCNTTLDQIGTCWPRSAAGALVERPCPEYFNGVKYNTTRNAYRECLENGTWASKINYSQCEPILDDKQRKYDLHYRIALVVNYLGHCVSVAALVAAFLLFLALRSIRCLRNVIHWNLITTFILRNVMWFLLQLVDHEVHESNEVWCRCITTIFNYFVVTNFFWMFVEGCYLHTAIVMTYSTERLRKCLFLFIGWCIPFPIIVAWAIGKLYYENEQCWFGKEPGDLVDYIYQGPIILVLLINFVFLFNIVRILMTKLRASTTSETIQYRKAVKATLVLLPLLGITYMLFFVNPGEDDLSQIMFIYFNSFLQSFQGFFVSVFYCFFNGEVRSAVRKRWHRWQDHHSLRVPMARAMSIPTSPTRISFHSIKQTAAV
# T2 sequence (P24387 whole entry): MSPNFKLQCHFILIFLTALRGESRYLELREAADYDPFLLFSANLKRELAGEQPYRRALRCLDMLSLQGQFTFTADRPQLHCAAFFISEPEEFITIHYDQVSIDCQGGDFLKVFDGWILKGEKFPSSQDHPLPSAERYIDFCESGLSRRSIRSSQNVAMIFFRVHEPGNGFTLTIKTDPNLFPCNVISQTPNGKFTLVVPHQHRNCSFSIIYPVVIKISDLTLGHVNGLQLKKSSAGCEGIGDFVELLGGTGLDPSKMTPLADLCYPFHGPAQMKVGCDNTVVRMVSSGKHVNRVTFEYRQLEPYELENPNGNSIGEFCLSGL
# fMet-Leu-Phe receptor = fMet-Leu-Phe receptor (Homo sapiens, UniProt P21462); assay: formyl peptide receptor binders – dose response (AID 519); type: functional
# fMet-Leu-Phe receptor, sequence (P21462 whole entry): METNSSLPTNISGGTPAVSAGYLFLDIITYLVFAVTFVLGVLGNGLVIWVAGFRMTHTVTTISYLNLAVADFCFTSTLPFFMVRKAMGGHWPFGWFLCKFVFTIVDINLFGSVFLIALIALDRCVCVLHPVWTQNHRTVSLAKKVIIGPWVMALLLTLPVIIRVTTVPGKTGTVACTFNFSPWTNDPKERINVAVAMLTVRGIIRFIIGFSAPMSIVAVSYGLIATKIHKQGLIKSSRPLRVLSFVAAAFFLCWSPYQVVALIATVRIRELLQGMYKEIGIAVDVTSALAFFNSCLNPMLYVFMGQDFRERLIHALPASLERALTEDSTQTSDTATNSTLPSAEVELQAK
# [2] = MITF Orthogonal Assay: SK-MEL-5 CTG Assay Measured in Cell-Based System Using Plate Reader - 2084-02_Inhibitor_Dose_DryPowder_Activity_Set7.; type: functional
# [3] = MITF: Counter assay: A375 proliferation Measured in Cell-Based System Using Plate Reader - 2084-03_Inhibitor_Dose_DryPowder_Activity_Set8.; type: functional; details: A-375
# [4] = inhibitors of TRPM1-promoter reporter in SK-MEL-5 – cell-based, luciferase, dry powder, set 8, MITF inhibitor project, dose response (AID 624430); type: functional
# [5] = Luminescence Cell-Based Dose Retest to Confirm Inhibitors of Cancer Stem Cells. [Related pubchem assays (depositor defined):AID2717, AID2721]; type: functional; details: Homo sapiens
# [6] = general cell-killing toxicity readout – plate reader, dry powder samples, cytotoxicity control for PAX8 inhibitor project, dose response (AID 743021); type: functional, cell-based
# [7] = toxicity toward HepG2 hepatoma cells – cell-based, dry powder samples, cytotoxicity control, dose response (AID 720568); type: functional
# [8] = NIH-3T3 fibroblast cytotoxicity, dose response, cytotoxicity control, cell-based, fluorescence, Alamar Blue, secondary assay (AID 2327); type: functional;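 also: NIH-3T3 mouse fibroblasts cultured with fluconazole at 8 µg/mL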
# [9] = biological target: T3, RNA-binding protein pos-1 (Caenorhabditis elegans, UniProt G5EF15); assay: disruptors of C. elegans POS-1 RNA interaction – biochemical, fluorescence polarization, dose response (AID 1964);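 also: purified POS-1 fused to maltose binding protein made in E. coli; potency of compounds blocking POS-1 binding to fluorescent RNA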
# T3 sequence (G5EF15 whole entry): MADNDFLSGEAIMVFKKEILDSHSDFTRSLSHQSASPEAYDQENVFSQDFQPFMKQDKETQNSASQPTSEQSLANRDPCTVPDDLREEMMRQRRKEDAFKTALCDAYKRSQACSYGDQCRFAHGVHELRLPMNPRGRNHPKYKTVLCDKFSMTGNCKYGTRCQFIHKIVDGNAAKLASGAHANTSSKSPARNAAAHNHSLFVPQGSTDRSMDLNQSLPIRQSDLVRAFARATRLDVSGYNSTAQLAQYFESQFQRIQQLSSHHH
# [10] = biological target: T4, Zinc finger protein mex-5 (Caenorhabditis elegans, UniProt Q9XUB2); assay: potency of MEX-5 RNA-binding blockers – biochemical, C. elegans, fluorescence polarization, dose response (AID 1960)
# T4 sequence (Q9XUB2 whole entry): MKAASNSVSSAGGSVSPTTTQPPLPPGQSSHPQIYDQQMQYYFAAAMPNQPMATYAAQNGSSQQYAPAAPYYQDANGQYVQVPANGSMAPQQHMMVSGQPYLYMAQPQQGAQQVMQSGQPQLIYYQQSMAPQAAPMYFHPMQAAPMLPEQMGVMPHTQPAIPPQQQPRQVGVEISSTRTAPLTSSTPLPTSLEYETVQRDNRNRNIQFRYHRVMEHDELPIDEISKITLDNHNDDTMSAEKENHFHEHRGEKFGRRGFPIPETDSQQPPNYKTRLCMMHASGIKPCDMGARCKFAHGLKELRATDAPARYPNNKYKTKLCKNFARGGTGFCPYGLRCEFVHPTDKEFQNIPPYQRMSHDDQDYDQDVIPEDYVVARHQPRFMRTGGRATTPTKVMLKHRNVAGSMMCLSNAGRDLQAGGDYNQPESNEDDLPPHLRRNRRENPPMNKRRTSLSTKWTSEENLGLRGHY
# [11] = fluconazole-exposed Candida albicans growth modulators – fluorescence, retest, confirmation (AID 2467); type: functional, cell-based
# [12] = microbe, parasite or virus in culture; type: functional; details: Mycobacterium tuberculosis
# [13] = biological target: T5, Apoptotic protease-activating factor 1 (Homo sapiens, UniProt O14727); type: functional
# T5 sequence (O14727 whole entry): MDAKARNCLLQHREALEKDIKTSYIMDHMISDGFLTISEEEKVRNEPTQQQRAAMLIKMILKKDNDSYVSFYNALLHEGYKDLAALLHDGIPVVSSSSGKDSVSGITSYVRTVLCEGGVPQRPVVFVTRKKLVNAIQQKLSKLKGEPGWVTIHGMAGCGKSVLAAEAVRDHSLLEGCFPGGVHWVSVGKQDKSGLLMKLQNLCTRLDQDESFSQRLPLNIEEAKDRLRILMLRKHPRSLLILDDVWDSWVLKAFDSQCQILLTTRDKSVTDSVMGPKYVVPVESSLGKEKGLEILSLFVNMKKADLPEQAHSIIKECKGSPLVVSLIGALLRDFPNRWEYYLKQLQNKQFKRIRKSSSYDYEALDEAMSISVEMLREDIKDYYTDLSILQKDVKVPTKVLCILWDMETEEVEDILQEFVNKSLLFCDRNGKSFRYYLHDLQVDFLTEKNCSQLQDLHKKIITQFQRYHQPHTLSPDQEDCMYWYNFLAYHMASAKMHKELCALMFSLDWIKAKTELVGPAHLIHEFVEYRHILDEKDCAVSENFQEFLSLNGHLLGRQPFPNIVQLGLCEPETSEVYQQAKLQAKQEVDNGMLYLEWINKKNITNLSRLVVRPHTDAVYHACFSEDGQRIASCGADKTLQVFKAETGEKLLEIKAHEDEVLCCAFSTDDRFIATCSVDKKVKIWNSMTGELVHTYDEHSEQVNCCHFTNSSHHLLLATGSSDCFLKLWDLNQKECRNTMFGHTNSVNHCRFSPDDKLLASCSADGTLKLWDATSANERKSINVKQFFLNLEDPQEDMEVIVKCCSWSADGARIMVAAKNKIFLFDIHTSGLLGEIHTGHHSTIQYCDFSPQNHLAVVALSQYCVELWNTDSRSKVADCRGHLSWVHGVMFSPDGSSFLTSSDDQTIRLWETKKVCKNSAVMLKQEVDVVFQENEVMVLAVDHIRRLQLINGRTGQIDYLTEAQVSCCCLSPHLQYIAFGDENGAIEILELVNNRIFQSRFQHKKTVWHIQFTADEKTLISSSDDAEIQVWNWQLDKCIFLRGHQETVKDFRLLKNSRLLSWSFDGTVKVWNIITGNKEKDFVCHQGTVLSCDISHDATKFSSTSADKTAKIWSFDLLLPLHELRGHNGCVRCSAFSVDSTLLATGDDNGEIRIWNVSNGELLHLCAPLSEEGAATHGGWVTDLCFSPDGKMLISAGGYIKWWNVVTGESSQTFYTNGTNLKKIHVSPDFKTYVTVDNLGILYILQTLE
# Protein RecA = biological target: T6, Protein RecA (Mycobacterium tuberculosis, UniProt P9WHJ3); assay: Fluorescence Cell-Free Homogeneous Dose Retest to Identify Inhibitors of RecA-Intein Splicing Activity. [Related pubchem assays (depositor defined):AID2097, AID2223, AID489010, AID492950]; type: functional
# T6 sequence (P9WHJ3 whole entry): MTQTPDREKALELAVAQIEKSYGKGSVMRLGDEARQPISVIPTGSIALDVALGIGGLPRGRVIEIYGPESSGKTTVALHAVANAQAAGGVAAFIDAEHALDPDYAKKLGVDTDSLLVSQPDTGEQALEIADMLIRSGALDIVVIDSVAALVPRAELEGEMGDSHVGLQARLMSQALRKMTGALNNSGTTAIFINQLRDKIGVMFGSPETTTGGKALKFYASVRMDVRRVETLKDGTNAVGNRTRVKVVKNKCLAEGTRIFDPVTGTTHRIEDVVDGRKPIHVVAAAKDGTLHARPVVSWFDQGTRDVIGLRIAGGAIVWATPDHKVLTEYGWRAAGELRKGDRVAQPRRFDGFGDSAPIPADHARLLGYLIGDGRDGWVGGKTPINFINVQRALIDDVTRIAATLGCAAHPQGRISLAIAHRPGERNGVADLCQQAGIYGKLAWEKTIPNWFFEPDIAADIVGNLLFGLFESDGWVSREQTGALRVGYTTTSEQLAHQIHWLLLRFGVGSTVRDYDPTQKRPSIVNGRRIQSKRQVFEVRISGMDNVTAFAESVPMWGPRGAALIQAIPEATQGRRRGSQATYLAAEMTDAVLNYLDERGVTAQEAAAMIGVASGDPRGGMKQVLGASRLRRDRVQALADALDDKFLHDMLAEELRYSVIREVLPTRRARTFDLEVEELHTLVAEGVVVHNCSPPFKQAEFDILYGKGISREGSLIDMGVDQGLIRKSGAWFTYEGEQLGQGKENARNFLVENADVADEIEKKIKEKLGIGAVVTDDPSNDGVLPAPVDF
# [14] = biological target: Dual specificity tyrosine-phosphorylation-regulated kinase 1A (Rattus norvegicus, UniProt Q63470); type: biochemical, Homo sapiens
# Caspase-6 = biological target: T7, Caspase-6 (Homo sapiens, UniProt P55212); assay: inhibition of CASP6 peptide cleavage – biochemical, VEID-R110 fluorescence, cherry-pick, dose response (AID 720632)
# T7 sequence (P55212 whole entry): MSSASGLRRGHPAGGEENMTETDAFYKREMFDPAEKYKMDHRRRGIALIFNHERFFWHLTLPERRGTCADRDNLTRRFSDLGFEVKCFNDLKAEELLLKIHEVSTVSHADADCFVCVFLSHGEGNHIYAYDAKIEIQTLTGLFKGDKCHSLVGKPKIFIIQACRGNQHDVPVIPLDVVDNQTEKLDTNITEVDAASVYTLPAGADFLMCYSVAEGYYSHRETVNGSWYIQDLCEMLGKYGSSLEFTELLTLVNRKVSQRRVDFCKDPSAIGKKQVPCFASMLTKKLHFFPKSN
# Caspase-9 = Caspase-9 (Homo sapiens, UniProt P55211); assay: inhibitors of purified CASP9 protease – biochemical, fluorescence, plate reader, cherry-picked samples, selectivity assay for caspase-6 inhibitor project, dose response (AID 743293)
# Caspase-9, sequence (P55211 1-315 limits assumed): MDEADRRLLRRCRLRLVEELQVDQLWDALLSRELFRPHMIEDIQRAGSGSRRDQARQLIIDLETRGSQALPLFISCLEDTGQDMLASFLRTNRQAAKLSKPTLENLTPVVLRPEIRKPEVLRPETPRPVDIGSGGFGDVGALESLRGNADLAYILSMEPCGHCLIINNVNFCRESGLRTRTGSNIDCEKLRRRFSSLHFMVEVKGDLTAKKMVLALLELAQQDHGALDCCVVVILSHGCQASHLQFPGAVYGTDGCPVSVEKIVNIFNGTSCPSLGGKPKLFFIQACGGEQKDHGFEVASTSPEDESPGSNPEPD
# Caspase-9, sequence (P55211 331-416 limits assumed): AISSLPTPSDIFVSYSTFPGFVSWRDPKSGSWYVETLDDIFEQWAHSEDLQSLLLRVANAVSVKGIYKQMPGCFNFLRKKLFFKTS
# Caspase-7 = Caspase-7 (Homo sapiens, UniProt P55210); assay: caspase-7 enzyme inhibition, selectivity check – biochemical, DEVD-R110 fluorescence, cherry-pick, selectivity assay for caspase-6 inhibitor project, dose response (AID 743295); type: functional
# Caspase-7, sequence (P55210 24-198 limits assumed): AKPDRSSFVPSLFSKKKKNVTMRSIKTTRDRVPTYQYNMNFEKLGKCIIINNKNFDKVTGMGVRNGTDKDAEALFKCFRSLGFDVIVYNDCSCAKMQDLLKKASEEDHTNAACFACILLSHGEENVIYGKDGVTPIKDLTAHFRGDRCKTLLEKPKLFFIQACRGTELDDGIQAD
# Caspase-7, sequence (P55210 207-303 limits assumed): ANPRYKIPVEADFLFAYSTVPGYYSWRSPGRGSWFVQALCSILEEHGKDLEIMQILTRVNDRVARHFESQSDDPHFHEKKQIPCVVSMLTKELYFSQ
smiles,measurement,setting,value
Cc1sc(NC(=O)C2CCCCC2C(=O)O)c(C(N)=O)c1-c1ccc(C(C)(C)C)cc1 (stereo unspecified),IC50,Leucine aminopeptidase,11.1 µM (active)
same,IC50,Genome polyprotein,60.1 µM (active)
same,EC50,[1],5.33 µM (active)
same,Ki,fMet-Leu-Phe receptor,41.2 µM (inactive)
O=C1C=C(Nc2ccc(Cl)c(C(F)(F)F)c2)C(=O)c2ccccc21,AC50,[2],0.754 µM (active)
same,AC50,[3],> 70 µM (inactive)
same,AC50,[4],> 70 µM (inactive)
Nc1nc(=S)c2ncn([C@@H]3O[C@H](CO)[C@@H](O)[C@H]3O)c2[nH]1 [THIOGUANOSINE],AC50,[5],0.301 µM (active)
same,AC50,[6],2.21 µM (active)
same,AC50,[7],6.38 µM (active)
CN1CCc2cc3c(c4c2C1Cc1ccccc1-4)OCO3 (stereo unspecified) [ROEMERINE],EC50,[8],> 150 µM (inactive)
same,EC50,[9],16.8 µM (active)
same,EC50,[10],21.5 µM (inconclusive)
same,EC50,[11],> 38 µM (not active)
same,CC50,[12],> 40 µM (active)
same,IC50,[13],10.2 µM (active)
same,EC50,Protein RecA,0.0797 µM (active)
same,AC50,[14],2.54 µM (active)
same,AC50,Caspase-6,3.68 µM (active)
same,AC50,Caspase-9,> 70 µM (inactive)
same,AC50,Caspase-7,1.51 µM (active)
